Assay results reported in PMC12069643, “Structural insights into the selective recognition of RF-amide peptides by neuropeptide FF receptor 2” (EMBO Reports, 2025).

How the values were obtained:
Test in all cases: GloSensor forskolin-stimulated cAMP assay, NPFFR2 mutants
Assay type in all cases: cell-based
NPFFR2 mutants [1] = target: T1, NPFFR2 mutants (Homo sapiens, UniProt Q9Y5X5, V231A); conditions: NPFFR2 V1293.36A, HEK293T, three independent experiments
T1 construct: expressed in transfected cells; host or cells: HEK293T (pcDNA3.1 NPFFR2 mutants)
Source text: (§1) Figure 2 Interaction of hNPSF with NPFFR2. (A) Residues participating in the interactions between hNPSF and NPFFR2 in the transmembrane (TM) binding pocket are shown as sticks. Dashed lines indicate polar interactions and hydrogen bonds between residues. Zoomed-in views highlighting interactions of the C-terminal segment (residues −1 to −4, PQRF), middle segment (residues −5 to −8, FLFQ), and the N-terminal segment (residues −9 to −11, SQA) of hNPSF are enclosed in red, blue, and yellow boxes, respectively. (B) NPFFR2 residues interacting with hNPSF were mutated to alanine, and the impact of each mutation on the EC50 value (ΔpEC50) was investigated using a forskolin-stimulated cAMP assay, after confirming surface expression of each mutant by an ELISA-based surface expression assay (Appendix Fig. S5). Three independent experiments (with technical triplicates) were conducted for each mutant. The bar graphs represent the mean of ΔpEC50 values from each experiment, with error bars indicating SEM. Statistical analyses were performed using ordinary one-way ANOVA followed by Dunnett’s test, comparing to the wild-type response. ns (not significant, P > 0.05); *P < 0.05; **P < 0.01; ***P < 0.001. Source data are available online for this figure.
(§2) HEK293T cells were seeded at a density of 6 × 10^5 cells per well in a six-well cell culture plate (SPL) and co-transfected with expression plasmids encoding GloSensor™ and each NPFFR construct, using 1 µg to 4 µg of DNA per well according to the Lipofectamine™ 2000 Transfection Reagent (Invitrogen) protocol. After 48 h of incubation under standard conditions (37 °C, 5% CO2), the cells were detached using Accutase solution (Sigma-Aldrich) and washed with PBS. The cells were then pelleted by centrifugation, resuspended in CO2-independent medium (Gibco) supplemented with Firefly D-Luciferin (0.5 mg/ml, NanoLight), and distributed into a 96-well white plate (SPL). After a 2-hour incubation, serially diluted ligands and 0.5 μM forskolin were added to each well to detect ligand-induced signaling. Luminescence signals were measured using a Mithras LB940 instrument (Berthold) with a measurement time of 1 s per well.
(§3) Data from the GloSensor^TM cAMP signaling assays were analyzed using GraphPad Prism with a three-parameter logistic model to fit concentration-response curves for both wild-type (WT) and mutant receptors. Mutant expression levels and DNA amounts were adjusted to match WT conditions. ΔpEC50 values were calculated by subtracting the log EC50 of the WT receptor from that of each mutant. Results are presented as mean ± SEM from three independent biological replicates, each performed in duplicate or more. Error bars represent the SEM. Statistical significance was assessed using one-way ANOVA, followed by Dunnett’s tests comparisons to the WT receptor. Significance levels were reported as follows: ns (not significant, P > 0.05); *P < 0.05; **P < 0.01; ***P < 0.001.
(§4) Appendix Figure S5. GloSensorTM cAMP assays of mutants and wild-type NPFFR2.
(§5) The dose-response of cAMP assay data for each mutant (red) presented in Fig. 2B are compared against the wild-type NPFFR2 (blue). Each experiment was conducted after adjusting the mutant's expression level to that of the wild-type NPFFR2 (Appendix Fig. S3), and pcDNA3.1 was used to match the total amount of DNA transfected. Data points represent mean values from three independent experiments (each with technical triplicate), with error bars indicating SEM. Raw data were normalized to the vehicle -treated (0%) and 0.5 μM forskolin-treated (100%) responses.
(§6) (% of forskolin stimulation) […]

NPFFR2 mutants [2] = target: T2, NPFFR2 mutants (Homo sapiens, UniProt Q9Y5X5, V305A); conditions: NPFFR2 V203ECL2A, HEK293T, three independent experiments
T2 construct: expressed in transfected cells; host or cells: HEK293T (pcDNA3.1 NPFFR2 mutants)
Source text: as §1, §2, §3, §4, §5, §6

NPFFR2 mutants [3] = target: T3, NPFFR2 mutants (Homo sapiens, UniProt Q9Y5X5, E289A); conditions: NPFFR2 E187ECL2A, HEK293T, three independent experiments
T3 construct: expressed in transfected cells; host or cells: HEK293T (pcDNA3.1 NPFFR2 mutants)
Source text: as §1, §2, §3, §4, §5, §6

NPFFR2 mutants [4] = target: T4, NPFFR2 mutants (Homo sapiens, UniProt Q9Y5X5, Y321A); conditions: NPFFR2 Y2195.38A, HEK293T, three independent experiments
T4 construct: expressed in transfected cells; host or cells: HEK293T (pcDNA3.1 NPFFR2 mutants)
Source text: as §1, §2, §3, §4, §5, §6

NPFFR2 mutants [5] = target: T5, NPFFR2 mutants (Homo sapiens, UniProt Q9Y5X5, Y417A); conditions: NPFFR2 Y3157.35A, HEK293T, three independent experiments
T5 construct: expressed in transfected cells; host or cells: HEK293T (pcDNA3.1 NPFFR2 mutants)
Source text: as §1, §2, §3, §4, §5, §6

NPFFR2 mutants [6] = target: T6, NPFFR2 mutants (Homo sapiens, UniProt Q9Y5X5, L141A); conditions: NPFFR2 L39NtA, HEK293T, three independent experiments
T6 construct: expressed in transfected cells; host or cells: HEK293T (pcDNA3.1 NPFFR2 mutants)
Source text: as §1, §2, §3, §4, §5, §6

NPFFR2 mutants [7] = target: T7, NPFFR2 mutants (Homo sapiens, UniProt Q9Y5X5, W393A); conditions: NPFFR2 W2916.52A, HEK293T, three independent experiments
T7 construct: expressed in transfected cells; host or cells: HEK293T (pcDNA3.1 NPFFR2 mutants)
Source text: as §1, §2, §3, §4, §5, §6

NPFFR2 mutants [8] = target: T8, NPFFR2 mutants (Homo sapiens, UniProt Q9Y5X5, T322A); conditions: NPFFR2 T2205.39A, HEK293T, three independent experiments
T8 construct: expressed in transfected cells; host or cells: HEK293T (pcDNA3.1 NPFFR2 mutants)
Source text: as §1, §2, §3, §4, §5, §6

NPFFR2 mutants [9] = target: T9, NPFFR2 mutants (Homo sapiens, UniProt Q9Y5X5, I414A); conditions: NPFFR2 I3127.32A, HEK293T, three independent experiments
T9 construct: expressed in transfected cells; host or cells: HEK293T (pcDNA3.1 NPFFR2 mutants)
Source text: as §1, §2, §3, §4, §5, §6

NPFFR2 mutants [10] = target: T10, NPFFR2 mutants (Homo sapiens, UniProt Q9Y5X5, I414S); conditions: NPFFR2 I3127.32S, HEK293T, three independent experiments
T10 construct: expressed in transfected cells; host or cells: HEK293T (pcDNA3.1 NPFFR2 mutants)
Source text: as §1, §2, §3, §4, §5, §6

NPFFR2 mutants [11] = target: T11, NPFFR2 mutants (Homo sapiens, UniProt Q9Y5X5, R318A); conditions: NPFFR2 R2165.35A, HEK293T, three independent experiments
T11 construct: expressed in transfected cells; host or cells: HEK293T (pcDNA3.1 NPFFR2 mutants)
Source text: as §1, §2, §3, §4, §5, §6

NPFFR2 mutants [12] = target: T12, NPFFR2 mutants (Homo sapiens, UniProt Q9Y5X5, W213A); conditions: NPFFR2 W11123.50A, HEK293T, three independent experiments
T12 construct: expressed in transfected cells; host or cells: HEK293T (pcDNA3.1 NPFFR2 mutants)
Source text: as §1, §2, §3, §4, §5, §6

T11 sequence (Q9Y5X5 103-522 R318A): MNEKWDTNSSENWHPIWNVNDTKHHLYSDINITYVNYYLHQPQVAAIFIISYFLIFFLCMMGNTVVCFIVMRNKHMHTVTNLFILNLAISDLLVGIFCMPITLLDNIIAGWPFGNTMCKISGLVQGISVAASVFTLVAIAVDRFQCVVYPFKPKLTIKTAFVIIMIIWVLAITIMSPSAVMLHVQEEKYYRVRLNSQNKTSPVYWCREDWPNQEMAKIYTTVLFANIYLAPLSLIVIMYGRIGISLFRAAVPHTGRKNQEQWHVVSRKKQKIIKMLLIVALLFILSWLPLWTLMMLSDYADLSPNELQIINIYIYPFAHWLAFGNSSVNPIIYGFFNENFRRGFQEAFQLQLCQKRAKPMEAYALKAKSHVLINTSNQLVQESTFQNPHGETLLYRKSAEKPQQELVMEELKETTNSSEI
T1 sequence (Q9Y5X5 103-522 V231A): as the sequence (Q9Y5X5 103-522 R318A) above, with V129A, A216R counted along it
T3 sequence (Q9Y5X5 103-522 E289A): as the sequence (Q9Y5X5 103-522 R318A) above, with E187A, A216R counted along it
T5 sequence (Q9Y5X5 103-522 Y417A): as the sequence (Q9Y5X5 103-522 R318A) above, with A216R, Y315A counted along it
T7 sequence (Q9Y5X5 103-522 W393A): as the sequence (Q9Y5X5 103-522 R318A) above, with A216R, W291A counted along it
T8 sequence (Q9Y5X5 103-522 T322A): as the sequence (Q9Y5X5 103-522 R318A) above, with A216R, T220A counted along it
T6 sequence (Q9Y5X5 103-522 L141A): as the sequence (Q9Y5X5 103-522 R318A) above, with L39A, A216R counted along it
T10 sequence (Q9Y5X5 103-522 I414S): as the sequence (Q9Y5X5 103-522 R318A) above, with A216R, I312S counted along it
T2 sequence (Q9Y5X5 103-522 V305A): as the sequence (Q9Y5X5 103-522 R318A) above, with V203A, A216R counted along it
T9 sequence (Q9Y5X5 103-522 I414A): as the sequence (Q9Y5X5 103-522 R318A) above, with A216R, I312A counted along it
T4 sequence (Q9Y5X5 103-522 Y321A): as the sequence (Q9Y5X5 103-522 R318A) above, with A216R, Y219A counted along it
T12 sequence (Q9Y5X5 103-522 W213A): as the sequence (Q9Y5X5 103-522 R318A) above, with W111A, A216R counted along it

With `CC(C)C[C@H](NC(=O)[C@H](Cc1ccccc1)NC(=O)[C@H](C)NC(=O)[C@H](CCC(N)=O)NC(=O)[C@@H](N)CO)C(=O)N[C@@H](Cc1ccccc1)C(=O)N[C@@H](CCC(N)=O)C(=O)N1CCC[C@H]1C(=O)N[C@@H](CCC(N)=O)C(=O)N[C@@H](CCCNC(=N)N)C(=O)N[C@@H](Cc1ccccc1)C(N)=O` [hNPSF] as the molecule, how does the Emax (NPFFR2 mutants [1]; HEK-293T) read?
Its Emax is 79 ± 3%.

And the EC50 (NPFFR2 mutants [1])?
Its EC50 is 126 nM.

What about the Emax (NPFFR2 mutants [2]; HEK-293T) of the same molecule?
Its Emax is 78 ± 3%.

What about the EC50 (NPFFR2 mutants [2]) of the same molecule?
Its EC50 is 200 nM.

What about the Emax (NPFFR2 mutants [3]; HEK-293T) of the same molecule?
Its Emax is 75 ± 3%.

What about the EC50 (NPFFR2 mutants [3]) of the same molecule?
The EC50 was 1 nM.

And the Emax (NPFFR2 mutants [4]; HEK-293T)?
The Emax was 72 ± 3%.

And the EC50 (NPFFR2 mutants [4])?
Its EC50 is 100 nM.

And the Emax (NPFFR2 mutants [5]; HEK-293T)?
Its Emax is 77 ± 2%.

And the EC50 (NPFFR2 mutants [5])?
The EC50 was 126 nM.

What about the Emax (NPFFR2 mutants [6]; HEK-293T) of the same molecule?
Its Emax is 70 ± 3%.

What about the EC50 (NPFFR2 mutants [6]) of the same molecule?
Its EC50 is 10 nM.

What about the Emax (NPFFR2 mutants [7]; HEK-293T) of the same molecule?
The Emax was 80 ± 4%.

What about the EC50 (NPFFR2 mutants [7]) of the same molecule?
The EC50 was 79.4 nM.

And the Emax (NPFFR2 mutants [8]; HEK-293T)?
Its Emax is 70 ± 5%.

What about the EC50 (NPFFR2 mutants [8]) of the same molecule?
The EC50 was 631 nM.

And the Emax (NPFFR2 mutants [9]; HEK-293T)?
The Emax was 63 ± 3%.

And the EC50 (NPFFR2 mutants [9])?
The EC50 was 10 nM.

What about the Emax (NPFFR2 mutants [10]; HEK-293T) of the same molecule?
Its Emax is 75 ± 3%.

What about the EC50 (NPFFR2 mutants [10]) of the same molecule?
The EC50 was 31.6 nM.

And the Emax (NPFFR2 mutants [11]; HEK-293T)?
The Emax was 85 ± 3%.

And the EC50 (NPFFR2 mutants [11])?
The EC50 was 10 nM.

What about the Emax (NPFFR2 mutants [12]; HEK-293T) of the same molecule?
Its Emax is 78 ± 5%.

And the EC50 (NPFFR2 mutants [12])?
Its EC50 is 1260 nM.
